ChEMBL document CHEMBL6120974, “Hydrazide-Based Class I Selective HDAC Inhibitors Completely Reverse Chemoresistance Synergistically in Platinum-Resistant Solid Cancer Cells” (J Med Chem, 2024)
Activity calls are given as the source filed them. No cut-off for these calls is given here.

Key:
[1] = tested on: A2780cisR; experiment: Induction of apoptosis in cisplatin resistant human A2780 cisR cells assessed as increase in caspase 3/7 activation at 2 uM in presence of cisplatin preincubated with compound for 48 hrs co-treated with cisplatin and measured after 24 hrs by capase3/7 green dye based analysis; assay type: functional, cell-based; details: time 72.0 hrs
[2] = tested on: Cal27CisR; experiment: Induction of apoptosis in cisplatin resistant human Cal27CisR cells assessed as apoptotic nuclei at sub-G1 phase at 0.316 uM incubated for 48 hrs by flow cytometric analysis; assay type: functional, cell-based
[3] = tested on: A2780; experiment: Induction of apoptosis in human A2780 cells assessed as increase in apoptotic nuclei at sub-G1 phase at 2 uM incubated for 48 hrs by flow cytometric analysis; assay type: functional, cell-based
[4] = tested on: A2780cisR; experiment: Induction of apoptosis in cisplatin resistant human A2780 cisR cells assessed as increase in apoptotic nuclei at sub-G1 phase at 2 uM incubated for 48 hrs by flow cytometric analysis; assay type: functional, cell-based
[5] = tested on: A2780; experiment: Induction of DNA damage in human A2780 cells assessed as increase in gammaH2AX formation at 0.75 uM in presence of cisplatin at 3.5 uM pretreated with compound for 48 hrs prior to addition of cisplatin and measured after 24 hrs by Hoechst 33342 staining based Immunofluorescence analysis; assay type: functional, cell-based; details: time 72.0 hrs
[6] = tested on: Cal27CisR; experiment: Induction of apoptosis in cisplatin resistant human Cal27CisR cells assessed as increase in Bcl-2 protein level at 0.316 uM in presence of cisplatin at 16.5 uM preincubated with compound for 48 hrs prior to addition of cisplatin and measured after 24 hrs by Immunoblotting analysis; assay type: functional, cell-based; details: time 72.0 hrs
[7] = tested on: A2780cisR; experiment: Induction of apoptosis in cisplatin resistant human A2780 cisR cells assessed as increase in Bcl-2 protein level at 2 uM in presence of cisplatin at 16 uM preincubated with compound for 48 hrs prior to addition of cisplatin and measured after 24 hrs by Immunoblotting analysis; assay type: functional, cell-based; details: time 72.0 hrs
[8] = tested on: CAL-27; experiment: Induction of cell cycle arrest in human CAL-27 cells assessed as increase in p21 expression at 0.316 uM incubated for 48 hrs by Western blotting analysis; assay type: functional, cell-based
[9] = tested on: A2780; experiment: Induction of cell cycle arrest in human A2780 cells assessed as increase in p21 expression at 0.75 uM incubated for 48 hrs by Western blotting analysis; assay type: functional, cell-based
[10] = tested on: A2780cisR; experiment: Effect on survivin expression in human cisplatin resistant human A2780 cisR cells at 2 uM in presence of cisplatin at 16 uM preincubated with compound for 48 hrs prior to addition of cisplatin and measured after 24 hrs by Immunoblotting analysis; assay type: functional, cell-based; details: time 72.0 hrs
[11] = tested on: Cal27CisR; experiment: Downregulation of BAX expression in cisplatin resistant human Cal27CisR cells at 0.316 uM incubated for 48 hrs by Immunoblotting analysis; assay type: functional, cell-based
[12] = tested on: CAL-27; experiment: Downregulation of BAX expression in human CAL-27 cells at 0.316 uM incubated for 48 hrs by Immunoblotting analysis; assay type: functional, cell-based
[13] = tested on: A2780; experiment: Downregulation of BAX expression in human A2780 cells at 0.75 uM incubated for 48 hrs by Immunoblotting analysis; assay type: functional, cell-based
[14] = tested on: CAL-27; experiment: Induction of apoptosis in human CAL-27 cells assessed as increase in BIM expression at 0.316 uM incubated for 48 hrs by Immunoblotting analysis; assay type: functional, cell-based
[15] = tested on: A2780; experiment: Induction of apoptosis in human A2780 cells assessed as increase in BIM expression at 0.75 uM incubated for 48 hrs by Immunoblotting analysis; assay type: functional, cell-based
[16] = tested on: A2780cisR; experiment: Induction of apoptosis in cisplatin resistant human A2780 cisR cells assessed as increase in apoptotic nuclei at sub-G1 phase at 2 uM in presence of cisplatin at 16 uM preincubated with compound for 48 hrs prior to addition of cisplatin and measured after 24 hrs by flow cytometric analysis; assay type: functional, cell-based; details: time 72.0 hrs
[17] = tested on: CAL-27; experiment: cells; details: Homo sapiens, CAL-27, 72 h
Description: Cytotoxicity against human CAL-27 cells assessed as reduction in cell viability incubated for 72 hrs by MTT assay

[18] = cells; details: Homo sapiens, A2780
Description: Inhibition of class IIa/8 HDAC (unknown origin) in human A2780 cells using Boc-Lys(TFA)-AMC as substrate preincubated with compound for 18 hrs followed by substrate addition and measured after 3 hrs by NOVOstar microplate reader analysis

[19] = Lipophilicity, logD of the compound in 1-octanol/PBS buffer at pH 7.4 by HPLC/UV analysis; assay type: physicochemical; details: 1-octanol/PBS buffer, read-out: logD
[20] = tested on: Cal27CisR; experiment: Induction of apoptosis in cisplatin resistant human Cal27CisR cells assessed as decrease in BIM expression at 0.316 uM in presence of cisplatin at 16.5 uM preincubated with compound for 24 to 72 hrs prior to addition of cisplatin and measured after 24 hrs by Immunoblotting analysis; assay type: functional, cell-based; details: time 48-96 hrs
[21] = tested on: Cal27CisR; experiment: Induction of apoptosis in cisplatin resistant human Cal27CisR cells assessed as decrease in BAX expression at 0.316 uM incubated for 24 to 72 hrs by Immunoblotting analysis; assay type: functional, cell-based; details: time 24-72 hrs
[22] = tested on: Cal27CisR; experiment: Induction of apoptosis in cisplatin resistant human Cal27CisR cells assessed as decrease in BAX expression at 0.316 uM in presence of cisplatin at 16.5 uM preincubated with compound for 24 to 72 hrs prior to addition of cisplatin and measured after 24 hrs by Immunoblotting analysis; assay type: functional, cell-based; details: time 48-96 hrs

Compound | Activity [1] | Activity [2] | Activity [3] | Activity [4] | Activity [5] | Activity [6] | Activity [7] | Activity [8] | Activity [9] | Activity [10] | Activity [11] | Activity [12] | Activity [13] | Activity [14] | Activity [15] | Activity [16] | IC50 [17] | IC50 [18] | other results
CCCCNNC(=O)c1ccc(CN(CC(=O)NCc2ccccc2)C(=O)c2ccc(N(C)C)cc2)cc1 | Active | Active; Moderate Percentage Of Apoptotic Nuclei Observed | Active | Active | inactive | Not active; Slight Increase Observed | Active | Active | Active | inactive | Active | Active | Active | Active | inactive | inactive | 0.688 µM | 15.9 µM | –
CCCNNC(=O)c1ccc(CN(CC(=O)NCc2ccccc2)C(=O)c2ccc(N(C)C)cc2)cc1 | Active | Active; Moderate Percentage Of Apoptotic Nuclei Observed | Active | Active | inactive | Not active; Slight Increase Observed | Active | Active | Active | inactive | Active | Active | Active | Active | inactive | inactive | 0.66 µM | 115 µM | logD [19]: 3.76; Activity [20]: Active; Activity [21]: inactive; Activity [22]: Active
